In brackets after ≈: the same amount, converted by molar mass.
Columns and labels:
P. aeruginosa ATCC27853 = assay: MIC determination by microplate dilution, P. aeruginosa human strain; type: cell-based, Pseudomonas aeruginosa; conditions: Pseudomonas aeruginosa, ATCC27853, Gram-negative, Mueller-Hinton medium, 24 h, 37° C.
Procedure: (§1) 1) Preparation of the Preculture
(§2) A negative control (2 mL of sterile culture medium)
(§3) A positive control (1940 μL of culture medium+40 μL of DMSO+20 μL of bacterial suspension) from a thawed biological strain (the biological strains are stored at −80° C. in glycerol).
(§4) The tubes were incubated at 37° C. for 24 hours at 100 rpm.
(§5) The microorganisms were handled under a type L2 laboratory fume cupboard and, before any handling, a UV cycle was programmed and only sterile material was used. […] The chemical compounds to be tested were prepared in a DMSO/methanol mixture (50/50) at a concentration of 5 mg/mL.
(§6) 2) Preparation of the Microplate for the Determination of the Minimum Inhibitory Concentration (MIC)
(§7) After 24 hours of incubation, a measurement of the optical density was taken using a spectrophotometer at 600 nm, collecting 100 μL of the bacterial suspension diluted in 900 μL of the sterile culture medium. This test required the use of a 96-well plate and the required volume of the microbial suspension to be seeded was calculated for an OD corresponding to a value equal to 0.01 in each well. In this plate, the first line corresponded to the negative control (195 μL of sterile culture medium in each well), the second line to the positive control (seeded culture medium supplemented with 2% of DMSO), the third line was loaded twice with bacterial suspension, 8 μL of test product were placed in each well. Thereafter, a 0.5 cascade dilution was performed from this line.
(§8) The first column served as inhibition control. A sterile filter was then placed on the microplate, allowing the passage of gases but not of contaminants. The microplate was incubated at 37° C. under a humid atmosphere for 24 hours.
(§9) NB: The medium used is Mueller-Hinton (MH) medium for bacteria. All the tests were performed in duplicate.
(§10) 4) Reading of the Results
(§11) After incubation, the filter was replaced with a transparent film, and an OD reading was then taken in an iEMS plate spectrophotometer at 620 nm. Calculation of the minimum inhibitory concentration (MIC) was performed.

P. aeruginosa (1051575) [1] = assay: MIC determination by microplate dilution, P. aeruginosa animal strain; type: cell-based, Pseudomonas aeruginosa; conditions: Pseudomonas aeruginosa, Gram-negative, Mueller-Hinton medium, 24 h, 37° C.
Procedure: as §1, §2, §3, §4, §5, §6, §7, §8, §9, §10, §11

S. intermedius (1051997) = assay: MIC determination by microplate dilution, S. intermedius animal strain; type: cell-based, Staphylococcus intermedius; conditions: Staphylococcus intermedius, Gram-positive, Mueller-Hinton medium, 24 h, 37° C.
Procedure: as §1, §2, §3, §4, §5, §6, §7, §8, §9, §10, §11

CHO-K1 cells = assay: WST1 cytotoxicity test on CHO-K1 cells; type: cell-based, Chinese hamster; conditions: Cricetulus griseus, CHO-K1, 24 h, read-out: IC50 (μg/mL) CHO
Procedure: Test WST1 was used to measure the cytotoxic activity of the products. This is a colorimetric test which makes it possible to measure the viability and the degree of cell proliferation. It is based on cleavage of the colorless tetrazolium salts WST-1 (4-[3-(4-iodophenyl)-2-(4-nitrophenyl)-2H-5-tetrazolio]-1,3-benzene disulfonate) with mitochondrial dehydrogenases to the yellow-colored formazan derivative, which may be quantified by spectrophotometry at 420-480 nm.
The WST1 test was performed on Chinese hamster ovary cells. The CHO-K1 cells (ATCC, USA) are kept in culture on McCoy's 5A medium supplemented with 10% fetal calf serum, 2 mM of L-glutamine and a mixture of penicillin-streptomycin (100 U/ml: 10 μg/mL). The culture is incubated at 37° C. under an atmosphere enriched in CO2 (5%), and subcultured every two days.
The cells are transferred into 96-well plates (25 000 cells/mL) in whole McCoy's 5A medium, and maintained for 24 hours at 37° C. under a humid atmosphere enriched in CO2 (5%). Increasing concentrations of test products are added to the wells in double tests and 8 growth controls containing the cells in the medium alone are included in each series of tests. After 24 hours at 37° C. (5% CO2), the culture medium is removed, the cells are rinsed in phosphate buffer (PBS) and 50 μL of PBS containing 10% of reagent WST1 are added to each well. After 20 minutes of incubation at 37° C., the results are read by spectrophotometry at 450 nm.
The results are expressed in dose-response relationships, modeled by nonlinear regression analysis using the TableCurve software. The 50% inhibitory concentration (IC50) represents the concentration of product that is capable of reducing the cell viability by 50%.

S. aureus ATCC25923 = assay: MIC determination by microplate dilution, S. aureus human strain; type: cell-based, Staphylococcus aureus; conditions: Staphylococcus aureus, ATCC25923, Gram-positive, Mueller-Hinton medium, 24 h, 37° C.
Procedure: as §1, §2, §3, §4, §5, §6, §7, §8, §9, §10, §11

E. faecalis ATCC29212 = assay: MIC determination by microplate dilution, E. faecalis human strain; type: cell-based, Enterococcus faecalis; conditions: Enterococcus faecalis, ATCC29212, Gram-positive, Mueller-Hinton medium, 24 h, 37° C.
Procedure: as §1, §2, §3, §4, §5, §6, §7, §8, §9, §10, §11

P. aeruginosa (1051575) [2] = assay: Potentiation of the doxycycline activity at 2 μg/mL; type: cell-based, Pseudomonas aeruginosa; conditions: in combination with doxycycline 2 μg/mL; 24 h, 37°
E. coli ATCC28922 = assay: MIC determination by microplate dilution, E. coli human strain; type: cell-based, Escherichia coli; conditions: Escherichia coli, ATCC28922, Gram-negative, Mueller-Hinton medium, 24 h, 37° C.
Procedure: as §1, §2, §3, §4, §5, §6, §7, §8, §9, §10, §11

S. aureus (340) = assay: MIC determination by microplate dilution, S. aureus animal strain; type: cell-based, Staphylococcus aureus; conditions: Staphylococcus aureus, Gram-positive, Mueller-Hinton medium, 24 h, 37° C.
Procedure: as §1, §2, §3, §4, §5, §6, §7, §8, §9, §10, §11

E. coli (1956) = assay: MIC determination by microplate dilution, E. coli animal strain; type: cell-based, Escherichia coli; conditions: Escherichia coli, Gram-negative, Mueller-Hinton medium, 24 h, 37° C.
Procedure: as §1, §2, §3, §4, §5, §6, §7, §8, §9, §10, §11

| Compound | MIC (P. aeruginosa ATCC27853) [µg/mL] | MIC (P. aeruginosa (1051575) [1]) [µg/mL] | MIC (S. intermedius (1051997)) [µg/mL] | IC50 (CHO-K1 cells) [µg/mL] | MIC (S. aureus ATCC25923) [µg/mL] | MIC (E. faecalis ATCC29212) [µg/mL] | MIC - P. aeruginosa (1051575): content of compound of formula (I) to restore the doxycycline activity (at 2 μg/mL) (P. aeruginosa (1051575) [2]) [µg/mL] | MIC (E. coli ATCC28922) [µg/mL] | MIC (S. aureus (340)) [µg/mL] | MIC (E. coli (1956)) [µg/mL] |
| --- | --- | --- | --- | --- | --- | --- | --- | --- | --- | --- |
| COC(=O)CC[C@@H](C)[C@H]1CCC2C3CCC4C[C@@H](NCCCNCCCN)CC[C@]4(C)C3C[C@H](O)[C@@]21C (stereo partly drawn) [(4), methyl 3β-norspermidinodeoxycholate] | 3 (≈ 5.77 µM) | 3 (≈ 5.77 µM) | 1 (≈ 1.92 µM) | 20 (≈ 38.5 µM) | 2 (≈ 3.85 µM) | 3 (≈ 5.77 µM) | 3 | 3 (≈ 5.77 µM) | 3 (≈ 5.77 µM) | – |
| CC(C)OC(=O)CC[C@@H](C)[C@H]1CCC2C3C(C[C@H](O)[C@@]21C)[C@@]1(C)CC[C@H](NCCCNCCCN)CC1C[C@H]3O (stereo partly drawn) [(7), isopropyl 3β-norspermidinocholate] | 30 (≈ 53.2 µM) | 30 (≈ 53.2 µM) | 28 (≈ 49.7 µM) | 110 (≈ 195 µM) | 28 (≈ 49.7 µM) | 28 (≈ 49.7 µM) | 4 | 28 (≈ 49.7 µM) | – | > 50 |
| COC(=O)CC[C@@H](C)[C@H]1CCC2C3C(CC[C@@]21C)[C@@]1(C)CC[C@H](NCCCNCCCN)CC1C[C@H]3O (stereo partly drawn) [(9), methyl 3β-norspermidinochenodeoxycholate] | 26 (≈ 50 µM) | 26 (≈ 50 µM) | 7 (≈ 13.5 µM) | 70 (≈ 135 µM) | 13 (≈ 25 µM) | 26 (≈ 50 µM) | 3 | 26 (≈ 50 µM) | 7 (≈ 13.5 µM) | 26 (≈ 50 µM) |
| COC(=O)CC[C@@H](C)[C@H]1CCC2C3C(CC[C@@]21C)[C@@]1(C)CC[C@H](NCCCNCCCN)CC1C[C@@H]3O (stereo partly drawn) [(13), methyl 3β-norspermidinoursodeoxycholate] | 28 (≈ 53.9 µM) | 55 (≈ 106 µM) | 7 (≈ 13.5 µM) | 70 (≈ 135 µM) | 27 (≈ 51.9 µM) | 28 (≈ 53.9 µM) | 7 | 55 (≈ 106 µM) | 14 (≈ 26.9 µM) | 55 (≈ 106 µM) |
| COC(=O)CC[C@@H](C)[C@H]1CCC2C3CCC4C[C@@H](NCCNCCNCCNCCNCCN)CC[C@]4(C)C3C[C@H](O)[C@@]21C (stereo partly drawn) [(20), methyl 3β-(pentaethylenehexamine)deoxycholate] | 8 (≈ 12.9 µM) | 8 (≈ 12.9 µM) | 1 (≈ 1.61 µM) | 90 (≈ 145 µM) | 4 (≈ 6.44 µM) | 16 (≈ 25.8 µM) | 4 | 8 (≈ 12.9 µM) | 6 (≈ 9.66 µM) | 14 (≈ 22.5 µM) |
| COC(=O)CC[C@@H](C)[C@H]1CCC2C3C(CC[C@@]21C)[C@@]1(C)CC[C@H](NCCNCCNCCNCCNCCN)CC1C[C@H]3O (stereo partly drawn) [(22), methyl 3β-(pentaethylenehexamine)chenodeoxycholate] | 31 (≈ 49.9 µM) | 31 (≈ 49.9 µM) | 2 (≈ 3.22 µM) | 60 (≈ 96.6 µM) | 16 (≈ 25.8 µM) | 8 (≈ 12.9 µM) | 4 | 31 (≈ 49.9 µM) | 4 (≈ 6.44 µM) | 8 (≈ 12.9 µM) |
| CC(C)OC(=O)CC[C@@H](C)[C@H]1CCC2C3CCC4C[C@@H](NCCCN(CCCN)CCCN)CC[C@]4(C)C3C[C@H](O)[C@@]21C (stereo partly drawn) [(28), isopropyl 3β-(tris(3-aminopropyl)amine)deoxycholate] | 30 (≈ 49.6 µM) | 30 (≈ 49.6 µM) | 8 (≈ 13.2 µM) | 85 (≈ 141 µM) | 15 (≈ 24.8 µM) | 30 (≈ 49.6 µM) | 2 | 15 (≈ 24.8 µM) | 15 (≈ 24.8 µM) | 30 (≈ 49.6 µM) |
| CC(C)OC(=O)CC[C@@H](C)[C@H]1CCC2C3CCC4C[C@@H](NCCCN(C)CCCN)CC[C@]4(C)C3C[C@H](O)[C@@]21C (stereo partly drawn) [(30), isopropyl 3β-(bis(3-aminopropyl)methylamine)deoxycholate] | 56 (≈ 99.7 µM) | 56 (≈ 99.7 µM) | 14 (≈ 24.9 µM) | – | 28 (≈ 49.8 µM) | 56 (≈ 99.7 µM) | 7 | 28 (≈ 49.8 µM) | 28 (≈ 49.8 µM) | 56 (≈ 99.7 µM) |
| CC(C)OC(=O)CC[C@@H](C)[C@H]1CCC2C3C(C[C@H](O)[C@@]21C)[C@@]1(C)CC[C@H](NCCCN(CCCN)CCCN)CC1C[C@H]3O (stereo partly drawn) [(34), isopropyl 3β-(tris(3-aminopropyl)amine)cholate] | 30 (≈ 48.3 µM) | 30 (≈ 48.3 µM) | 7 (≈ 11.3 µM) | – | 15 (≈ 24.2 µM) | 30 (≈ 48.3 µM) | 4 | 30 (≈ 48.3 µM) | 15 (≈ 24.2 µM) | 30 (≈ 48.3 µM) |
| COC(=O)CC[C@@H](C)[C@H]1CCC2C3C(CC[C@@]21C)[C@@]1(C)CC[C@H](NCCCN(C)CCCN)CC1C[C@H]3O (stereo partly drawn) [(37), methyl 3β-(bis(3-aminopropyl)methylamine)chenodeoxycholate] | 27 (≈ 50.6 µM) | 13 (≈ 24.4 µM) | > 107 | 115 (≈ 215 µM) | 27 (≈ 50.6 µM) | 13 (≈ 24.4 µM) | 3 | 27 (≈ 50.6 µM) | 27 (≈ 50.6 µM) | 13 (≈ 24.4 µM) |
| CC(C)OC(=O)CC[C@@H](C)[C@H]1CCC2C3C(CC[C@@]21C)[C@@]1(C)CC[C@H](NCCCN(C)CCCN)CC1C[C@H]3O (stereo partly drawn) [(41), isopropyl 3β-(bis(3-aminopropyl)methylamine)chenodeoxycholate] | 28 (≈ 49.8 µM) | 28 (≈ 49.8 µM) | 7 (≈ 12.5 µM) | 4 (≈ 7.12 µM) | 14 (≈ 24.9 µM) | 28 (≈ 49.8 µM) | 4 | 56 (≈ 99.7 µM) | 14 (≈ 24.9 µM) | 28 (≈ 49.8 µM) |
| COC(=O)CC[C@@H](C)[C@H]1CCC2C3C(CC[C@@]21C)[C@@]1(C)CC[C@H](NCCNCCNCCNCCNCCN)CC1C[C@@H]3O (stereo partly drawn) [(50), methyl 3β-(pentaethylenehexamine)ursodeoxycholate] | 60 (≈ 96.6 µM) | 60 (≈ 96.6 µM) | 8 (≈ 12.9 µM) | 45 (≈ 72.5 µM) | 30 (≈ 48.3 µM) | 60 (≈ 96.6 µM) | 16 | 60 (≈ 96.6 µM) | 30 (≈ 48.3 µM) | 60 (≈ 96.6 µM) |

Reference: patent US20190255073A1, “ESTERS OF 3-POLYAMINE DERIVATIVES OF BILE ACIDS FOR THE TREATMENT OF INFECTIONS” (VIRBAC, priority 2016, published 2019)
